Values joined by “and” are separate entries in the source; they are usually repeats but may differ in a detail not shown here. Equal values may be shown once.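 Where inhibition never reached the appropriate level, the endpoint shown equals the highest concentration tested. Otherwise, values were interpolated linearly from a five-concentration, 48-hour dose response in 96-well plates. The concentration for 50% growth inhibition is given as GI50. Definition used: TGI = concentration required for complete inhibition of growth.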
Legend:
Assay in all cases: growth of human tumour cells (NCI), 48 h
A498 renal = test system: A498 renal
HCT-116 colon = test system: HCT-116 colon
SK-MEL-2 melanoma = test system: SK-MEL-2 melanoma
SF-539 CNS = test system: SF-539 CNS
SN12C renal = test system: SN12C renal
SW-620 colon = test system: SW-620 colon
SF-268 CNS = test system: SF-268 CNS
UACC-62 melanoma = test system: UACC-62 melanoma
SK-MEL-5 melanoma = test system: SK-MEL-5 melanoma
OVCAR-5 ovarian = test system: OVCAR-5 ovarian
HS 578T breast = test system: HS 578T breast
CAKI-1 renal = test system: CAKI-1 renal
COLO 205 colon = test system: COLO 205 colon
SF-295 CNS = test system: SF-295 CNS
HT29 colon = test system: HT29 colon
SR leukemia = test system: SR leukemia
NCI-H226 lung = test system: NCI-H226 lung
PC-3 prostate = test system: PC-3 prostate
M14 melanoma = test system: M14 melanoma
MDA-N = test system: MDA-N
SNB-19 CNS = test system: SNB-19 CNS
SNB-75 CNS = test system: SNB-75 CNS
NCI-H522 lung = test system: NCI-H522 lung
HOP-92 NSCLC = test system: HOP-92 NSCLC
NCI/ADR-RES ovarian = test system: NCI/ADR-RES ovarian
SK-OV-3 ovarian = test system: SK-OV-3 ovarian
SK-MEL-28 melanoma = test system: SK-MEL-28 melanoma
MCF7 breast = test system: MCF7 breast
MDA-MB-435 = test system: MDA-MB-435
K-562 leukemia = test system: K-562 leukemia
LOX IMVI melanoma = test system: LOX IMVI melanoma
OVCAR-8 ovarian = test system: OVCAR-8 ovarian
ACHN renal = test system: ACHN renal
RXF 393 renal = test system: RXF 393 renal
OVCAR-3 ovarian = test system: OVCAR-3 ovarian
HCT-15 colon = test system: HCT-15 colon
UO-31 renal = test system: UO-31 renal
HL-60(TB) leukemia = test system: HL-60(TB) leukemia
DU-145 prostate = test system: DU-145 prostate
NCI-H23 lung = test system: NCI-H23 lung
CCRF-CEM leukemia = test system: CCRF-CEM leukemia
EKVX NSCLC = test system: EKVX NSCLC
KM12 colon = test system: KM12 colon
BT-549 breast = test system: BT-549 breast
T-47D breast = test system: T-47D breast
RPMI-8226 leukemia = test system: RPMI-8226 leukemia
IGROV1 ovarian = test system: IGROV1 ovarian
MOLT-4 leukemia = test system: MOLT-4 leukemia
MALME-3M melanoma = test system: MALME-3M melanoma
OVCAR-4 ovarian = test system: OVCAR-4 ovarian
A549 NSCLC = test system: A549 NSCLC
786-0 renal = test system: 786-0 renal
U251 CNS = test system: U251 CNS
TK-10 renal = test system: TK-10 renal
UACC-257 melanoma = test system: UACC-257 melanoma
MDA-MB-231 breast = test system: MDA-MB-231 breast
HOP-62 NSCLC = test system: HOP-62 NSCLC
NCI-H460 lung = test system: NCI-H460 lung
HCC-2998 colon = test system: HCC-2998 colon

`COc1cc(/C=N/NC(=O)c2ccc(NC(C)=O)cc2OC)ccc1O` was tested, and the TGI (A498 renal) was > 100 µM, the TGI (HCT-116 colon) was > 100 µM and the TGI (SK-MEL-2 melanoma) was 93.3 µM. For the same molecule, the TGI (SF-539 CNS) was > 100 µM, the TGI (SN12C renal) was > 100 µM and the TGI (SW-620 colon) was > 100 µM. For the same molecule, the TGI (SF-268 CNS) was > 100 µM, the TGI (UACC-62 melanoma) was > 100 µM and the TGI (SK-MEL-5 melanoma) was > 100 µM. For the same molecule, the TGI (OVCAR-5 ovarian) was > 100 µM, the TGI (HS 578T breast) was 81.6 µM and the TGI (CAKI-1 renal) was > 100 µM. The TGI (COLO 205 colon) was > 100 µM, the TGI (SF-295 CNS) was > 100 µM and the TGI (HT29 colon) was > 100 µM. The TGI (SR leukemia) was > 100 µM, the TGI (NCI-H226 lung) was > 100 µM and the TGI (PC-3 prostate) was > 100 µM. The TGI (M14 melanoma) was > 100 µM, the TGI (MDA-N) was > 100 µM and the TGI (SNB-19 CNS) was > 100 µM. The TGI (SNB-75 CNS) was 73 µM, the TGI (NCI-H522 lung) was > 100 µM and the TGI (HOP-92 NSCLC) was 54.3 µM. For the same molecule, the TGI (NCI/ADR-RES ovarian) was > 100 µM, the TGI (SK-OV-3 ovarian) was > 100 µM and the TGI (SK-MEL-28 melanoma) was > 100 µM. For the same molecule, the TGI (MCF7 breast) was > 100 µM, the TGI (MDA-MB-435) was > 100 µM and the TGI (K-562 leukemia) was > 100 µM. For the same molecule, the TGI (LOX IMVI melanoma) was > 100 µM, the TGI (OVCAR-8 ovarian) was > 100 µM and the TGI (ACHN renal) was > 100 µM. The TGI (RXF 393 renal) was > 100 µM, the TGI (OVCAR-3 ovarian) was > 100 µM and the TGI (HCT-15 colon) was > 100 µM. The TGI (UO-31 renal) was > 100 µM, the TGI (HL-60(TB) leukemia) was > 100 µM and the TGI (DU-145 prostate) was > 100 µM. The TGI (NCI-H23 lung) was > 100 µM, the TGI (CCRF-CEM leukemia) was > 100 µM and the TGI (EKVX NSCLC) was > 100 µM. For the same molecule, the TGI (KM12 colon) was > 100 µM, the TGI (BT-549 breast) was > 100 µM and the TGI (T-47D breast) was > 100 µM. The TGI (RPMI-8226 leukemia) was > 100 µM, the TGI (IGROV1 ovarian) was > 100 µM and the TGI (MOLT-4 leukemia) was > 100 µM. The TGI (MALME-3M melanoma) was > 100 µM, the TGI (OVCAR-4 ovarian) was > 100 µM and the TGI (A549 NSCLC) was > 100 µM. For the same molecule, the TGI (786-0 renal) was > 100 µM.

`COC(=O)[C@H](Cc1ccccc1)NC(=O)[C@H](Cc1ccccc1)NC(=O)CN1C(=O)[C@@H]2C3C=CC(C3)[C@@H]2C1=O` was tested, and the TGI (A498 renal) was 31.3 µM and 53 µM, the TGI (U251 CNS) was 30 µM and 33.2 µM and the TGI (HCT-116 colon) was 27.3 µM and 30.2 µM. For the same molecule, the TGI (SK-MEL-2 melanoma) was 33 µM and 34.5 µM, the TGI (SF-539 CNS) was 32 µM and 33.3 µM and the TGI (SN12C renal) was 32.9 µM and 30.6 µM. For the same molecule, the TGI (SW-620 colon) was 40.8 µM and 48.5 µM, the TGI (SF-268 CNS) was 26.3 µM and 31.5 µM and the TGI (UACC-62 melanoma) was 30 µM and 30.2 µM. The TGI (SK-MEL-5 melanoma) was 28.3 µM and 32.1 µM, the TGI (OVCAR-5 ovarian) was 43.1 µM and 41.7 µM and the TGI (HS 578T breast) was 38.2 µM and 38 µM. For the same molecule, the TGI (CAKI-1 renal) was 30.6 µM and 35.1 µM, the TGI (COLO 205 colon) was 29.7 µM and 30.9 µM and the TGI (SF-295 CNS) was 35.5 µM and 36.6 µM. The TGI (HT29 colon) was 38.4 µM and 42.1 µM, the TGI (NCI-H226 lung) was 38.5 µM and 39.1 µM and the TGI (PC-3 prostate) was 29 µM and 30 µM. The TGI (M14 melanoma) was 41.4 µM and 40.4 µM, the TGI (MDA-N) was 30.2 µM and 30.9 µM and the TGI (SNB-19 CNS) was 36.6 µM and 39.9 µM. For the same molecule, the TGI (TK-10 renal) was 31.2 µM and 38.6 µM, the TGI (UACC-257 melanoma) was 30.9 µM and 33.6 µM and the TGI (MDA-MB-231 breast) was 31.5 µM and 32.4 µM. For the same molecule, the TGI (SNB-75 CNS) was 34 µM and 33.7 µM, the TGI (NCI-H522 lung) was 27.8 µM and 31.8 µM and the TGI (HOP-62 NSCLC) was 38.5 µM and 39.8 µM. The TGI (HOP-92 NSCLC) was 33.3 µM and 36.1 µM, the TGI (NCI/ADR-RES ovarian) was 53.9 µM and > 100 µM and the TGI (SK-OV-3 ovarian) was 31.7 µM. For the same molecule, the TGI (SK-MEL-28 melanoma) was 35 µM and 35.7 µM, the TGI (MCF7 breast) was 34.1 µM and 31.7 µM and the TGI (MDA-MB-435) was 28.7 µM and 32 µM. For the same molecule, the GI50 (K-562 leukemia) was 7.26 µM and 17.5 µM, the TGI (K-562 leukemia) was 36.2 µM and 42.2 µM and the TGI (LOX IMVI melanoma) was 33.3 µM and 32.2 µM. The TGI (OVCAR-8 ovarian) was 27.9 µM and 33.8 µM, the TGI (ACHN renal) was 29.7 µM and 30.4 µM and the TGI (RXF 393 renal) was 36.2 µM and 35 µM. The TGI (NCI-H460 lung) was 42.6 µM and 46.3 µM, the TGI (OVCAR-3 ovarian) was 33.1 µM and 37 µM and the TGI (HCC-2998 colon) was 30.8 µM and 31 µM. The TGI (HCT-15 colon) was 31.2 µM and 33.1 µM, the TGI (UO-31 renal) was 42.3 µM and 32.1 µM and the TGI (HL-60(TB) leukemia) was 40.8 µM and 33.5 µM. The TGI (DU-145 prostate) was 39.1 µM and 34.2 µM, the TGI (NCI-H23 lung) was 32.1 µM and 33 µM and the GI50 (CCRF-CEM leukemia) was 7.9 µM and 19.9 µM. The TGI (CCRF-CEM leukemia) was 39.1 µM and 57.3 µM, the TGI (EKVX NSCLC) was 35.1 µM and 37.3 µM and the TGI (KM12 colon) was 33.9 µM and 41.7 µM. For the same molecule, the TGI (BT-549 breast) was 32.1 µM and 30.2 µM, the TGI (T-47D breast) was 47.2 µM and 49 µM and the TGI (RPMI-8226 leukemia) was 38.3 µM and 52 µM. The TGI (IGROV1 ovarian) was 25.5 µM and 30.4 µM, the TGI (MOLT-4 leukemia) was 5.2 µM and 8.67 µM and the TGI (OVCAR-4 ovarian) was 31.2 µM and 37.5 µM. The TGI (A549 NSCLC) was 45.9 µM and 44.1 µM and the TGI (786-0 renal) was 27.2 µM and 28.8 µM.

Reference: PubChem BioAssay (NCI)
